Tests used:
Experiment in all cases: KINOMEscan
Type in all cases: binding
MYO3B = MYO3B (Homo sapiens (Human), UniProt Q8WXR4); conditions: 10000 nM, read-out: Percent Control
NIK = NIK (Homo sapiens (Human), UniProt Q99558); conditions: 10000 nM, read-out: Percent Control
[1] = molecular target: JAK1(JH1domain-catalytic) (Homo sapiens (Human), UniProt P23458); conditions: 10000 nM, read-out: Percent Control
AURKB = AURKB (Homo sapiens (Human), UniProt Q96GD4); conditions: 10000 nM, read-out: Percent Control
TTK = TTK (Homo sapiens (Human), UniProt P33981); conditions: 10000 nM, read-out: Percent Control
ROCK1 = ROCK1 (Homo sapiens (Human), UniProt Q13464); conditions: ROCK1, 10000 nM; read-out: Percent Control
SRMS = SRMS (Homo sapiens (Human), UniProt Q9H3Y6); conditions: 10000 nM, read-out: Percent Control
DMPK2 = DMPK2 (Homo sapiens (Human), UniProt Q6DT37); conditions: DMPK2, 10000 nM; read-out: Percent Control
CSF1R-autoinhibited = CSF1R-autoinhibited (Homo sapiens (Human), UniProt P07333); conditions: 10000 nM, read-out: Percent Control
NEK3 = NEK3 (Homo sapiens (Human), UniProt P51956); conditions: NEK3, 10000 nM; read-out: Percent Control
FES = FES (Homo sapiens (Human), UniProt P07332); conditions: 10000 nM, read-out: Percent Control
CSNK1G2 = CSNK1G2 (Homo sapiens (Human), UniProt P78368); conditions: CSNK1G2, 10000 nM; read-out: Percent Control
CDK9 = CDK9 (Homo sapiens (Human), UniProt P50750); conditions: CDK9, 10000 nM; read-out: Percent Control
CDK9, sequence (P50750 whole entry): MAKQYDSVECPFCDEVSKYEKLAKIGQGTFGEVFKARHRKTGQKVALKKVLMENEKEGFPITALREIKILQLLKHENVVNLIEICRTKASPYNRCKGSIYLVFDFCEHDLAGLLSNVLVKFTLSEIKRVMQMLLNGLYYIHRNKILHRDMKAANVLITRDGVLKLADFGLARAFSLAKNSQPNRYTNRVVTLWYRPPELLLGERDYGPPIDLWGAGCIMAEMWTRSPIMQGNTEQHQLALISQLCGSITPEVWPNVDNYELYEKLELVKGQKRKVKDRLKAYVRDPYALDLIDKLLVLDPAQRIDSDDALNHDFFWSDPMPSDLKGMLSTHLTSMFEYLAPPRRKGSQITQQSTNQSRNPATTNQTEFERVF

PIK3CB = PIK3CB (Homo sapiens (Human), UniProt P42338); conditions: 10000 nM, read-out: Percent Control
PIK3CB, sequence (P42338 whole entry): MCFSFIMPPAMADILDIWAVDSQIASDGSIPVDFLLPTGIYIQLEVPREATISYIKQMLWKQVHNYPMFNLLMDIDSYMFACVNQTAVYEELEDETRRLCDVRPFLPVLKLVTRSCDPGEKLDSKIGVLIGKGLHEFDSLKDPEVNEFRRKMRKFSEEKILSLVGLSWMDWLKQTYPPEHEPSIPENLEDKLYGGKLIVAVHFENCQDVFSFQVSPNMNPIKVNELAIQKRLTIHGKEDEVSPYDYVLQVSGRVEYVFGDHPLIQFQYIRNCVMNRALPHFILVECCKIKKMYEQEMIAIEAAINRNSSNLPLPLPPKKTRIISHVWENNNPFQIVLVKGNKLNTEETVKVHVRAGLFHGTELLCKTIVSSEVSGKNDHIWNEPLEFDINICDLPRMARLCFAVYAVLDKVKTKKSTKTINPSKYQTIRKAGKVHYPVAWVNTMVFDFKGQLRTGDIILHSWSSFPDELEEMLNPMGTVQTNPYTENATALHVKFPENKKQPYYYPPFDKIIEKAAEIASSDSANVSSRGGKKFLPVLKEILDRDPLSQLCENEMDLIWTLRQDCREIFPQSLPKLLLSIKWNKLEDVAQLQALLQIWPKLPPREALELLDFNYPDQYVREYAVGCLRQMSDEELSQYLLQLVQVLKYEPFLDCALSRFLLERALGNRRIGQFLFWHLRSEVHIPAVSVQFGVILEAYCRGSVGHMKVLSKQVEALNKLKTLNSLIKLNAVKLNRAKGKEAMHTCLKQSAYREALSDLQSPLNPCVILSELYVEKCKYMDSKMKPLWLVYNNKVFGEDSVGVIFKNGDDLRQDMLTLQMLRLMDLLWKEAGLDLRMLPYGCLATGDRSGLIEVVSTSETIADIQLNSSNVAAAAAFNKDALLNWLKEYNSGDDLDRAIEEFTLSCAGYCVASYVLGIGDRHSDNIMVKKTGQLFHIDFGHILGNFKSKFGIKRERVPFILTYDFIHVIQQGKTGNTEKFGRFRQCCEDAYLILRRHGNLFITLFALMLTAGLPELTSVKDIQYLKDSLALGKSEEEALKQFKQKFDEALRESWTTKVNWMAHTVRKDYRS

LYN = LYN (Homo sapiens (Human), UniProt P07948); conditions: 10000 nM, read-out: Percent Control
KIT-autoinhibited = KIT-autoinhibited (Homo sapiens (Human), UniProt P10721); conditions: 10000 nM, read-out: Percent Control
KIT-autoinhibited, sequence (P10721 544-976): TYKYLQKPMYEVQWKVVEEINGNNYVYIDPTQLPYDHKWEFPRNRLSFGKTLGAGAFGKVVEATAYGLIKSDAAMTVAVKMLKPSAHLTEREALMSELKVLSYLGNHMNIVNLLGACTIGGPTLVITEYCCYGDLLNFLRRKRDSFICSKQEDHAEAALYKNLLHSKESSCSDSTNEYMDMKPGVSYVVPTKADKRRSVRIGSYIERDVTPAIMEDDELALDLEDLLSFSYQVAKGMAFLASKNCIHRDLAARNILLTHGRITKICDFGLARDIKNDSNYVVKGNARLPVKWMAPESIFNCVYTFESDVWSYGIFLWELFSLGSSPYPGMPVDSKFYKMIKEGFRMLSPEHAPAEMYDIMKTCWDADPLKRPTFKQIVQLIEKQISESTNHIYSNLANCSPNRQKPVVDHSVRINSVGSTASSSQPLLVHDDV

RIOK1 = RIOK1 (Homo sapiens (Human), UniProt Q9BRS2); conditions: RIOK1, 10000 nM; read-out: Percent Control
SRPK2 = SRPK2 (Homo sapiens (Human), UniProt P78362); conditions: SRPK2, 10000 nM; read-out: Percent Control
FLT3(D835V) = FLT3(D835V) (Homo sapiens (Human), UniProt P36888, D835V); conditions: 10000 nM, read-out: Percent Control
LIMK1 = LIMK1 (Homo sapiens (Human), UniProt P53667); conditions: LIMK1, 10000 nM; read-out: Percent Control
ABL1-nonphosphorylated = ABL1-nonphosphorylated (Homo sapiens (Human), UniProt P00519); conditions: 10000 nM, read-out: Percent Control
ABL1-nonphosphorylated, sequence (P00519 whole entry): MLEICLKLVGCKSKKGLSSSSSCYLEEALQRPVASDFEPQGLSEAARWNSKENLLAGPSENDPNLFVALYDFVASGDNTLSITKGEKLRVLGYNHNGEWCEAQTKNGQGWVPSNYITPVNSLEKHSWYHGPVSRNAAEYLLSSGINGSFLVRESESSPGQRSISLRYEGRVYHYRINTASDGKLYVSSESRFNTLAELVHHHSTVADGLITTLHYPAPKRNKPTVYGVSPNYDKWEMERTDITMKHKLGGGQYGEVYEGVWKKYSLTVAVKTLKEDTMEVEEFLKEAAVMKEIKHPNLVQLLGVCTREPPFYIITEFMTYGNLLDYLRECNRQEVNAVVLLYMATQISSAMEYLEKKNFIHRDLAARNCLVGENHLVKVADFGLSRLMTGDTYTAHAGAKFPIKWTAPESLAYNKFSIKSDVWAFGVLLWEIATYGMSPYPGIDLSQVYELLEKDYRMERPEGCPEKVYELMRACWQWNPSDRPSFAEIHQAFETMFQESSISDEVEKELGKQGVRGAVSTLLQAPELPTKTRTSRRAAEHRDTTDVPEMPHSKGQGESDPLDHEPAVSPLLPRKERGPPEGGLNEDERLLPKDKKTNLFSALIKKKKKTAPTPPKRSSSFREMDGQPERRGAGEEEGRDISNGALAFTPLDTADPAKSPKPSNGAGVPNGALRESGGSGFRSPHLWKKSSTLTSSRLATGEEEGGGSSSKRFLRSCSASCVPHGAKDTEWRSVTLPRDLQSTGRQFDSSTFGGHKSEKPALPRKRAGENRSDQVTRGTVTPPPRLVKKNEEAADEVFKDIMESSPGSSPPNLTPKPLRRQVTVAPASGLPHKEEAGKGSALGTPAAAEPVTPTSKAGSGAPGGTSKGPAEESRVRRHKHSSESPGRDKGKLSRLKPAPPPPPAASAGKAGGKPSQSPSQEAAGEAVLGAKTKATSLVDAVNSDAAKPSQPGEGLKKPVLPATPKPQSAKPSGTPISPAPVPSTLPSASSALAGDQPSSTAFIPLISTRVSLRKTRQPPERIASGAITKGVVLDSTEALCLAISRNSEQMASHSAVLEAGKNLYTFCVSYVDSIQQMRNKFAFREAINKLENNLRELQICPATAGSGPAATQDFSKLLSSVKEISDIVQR

CDK7 = CDK7 (Homo sapiens (Human), UniProt P50613); conditions: CDK7, 10000 nM; read-out: Percent Control
PIP5K1C = PIP5K1C (Homo sapiens (Human), UniProt O60331); conditions: 10000 nM, read-out: Percent Control
PIK3CD = PIK3CD (Homo sapiens (Human), UniProt O00329); conditions: 10000 nM, read-out: Percent Control
[2] = molecular target: ABL1(E255K)-phosphorylated (Homo sapiens (Human), UniProt P00519, E255K); conditions: 10000 nM, read-out: Percent Control
ABL1(E255K)-phosphorylated, sequence (P00519 whole entry E255K): as the sequence (P00519 whole entry) above, with E255K counted along it

VRK2 = VRK2 (Homo sapiens (Human), UniProt Q86Y07); conditions: VRK2, 10000 nM; read-out: Percent Control
CDK5 = CDK5 (Homo sapiens (Human), UniProt Q00535); conditions: CDK5, 10000 nM; read-out: Percent Control
CDK5, sequence (Q00535 whole entry): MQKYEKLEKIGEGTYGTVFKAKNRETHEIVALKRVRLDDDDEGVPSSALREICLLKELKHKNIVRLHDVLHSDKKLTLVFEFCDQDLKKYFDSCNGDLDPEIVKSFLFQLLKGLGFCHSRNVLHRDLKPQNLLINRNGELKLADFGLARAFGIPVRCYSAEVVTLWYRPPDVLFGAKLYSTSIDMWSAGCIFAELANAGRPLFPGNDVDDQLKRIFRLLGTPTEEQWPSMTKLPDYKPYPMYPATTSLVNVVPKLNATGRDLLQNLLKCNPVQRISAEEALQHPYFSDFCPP

FLT3(N841I) = FLT3(N841I) (Homo sapiens (Human), UniProt P36888, N841I); conditions: 10000 nM, read-out: Percent Control
MAP3K2 = MAP3K2 (Homo sapiens (Human), UniProt Q9Y2U5); conditions: MAP3K2, 10000 nM; read-out: Percent Control
PDGFRA = PDGFRA (Homo sapiens (Human), UniProt P16234); conditions: 10000 nM, read-out: Percent Control
PDPK1 = PDPK1 (Homo sapiens (Human), UniProt O15530); conditions: PDPK1, 10000 nM; read-out: Percent Control
MTOR = MTOR (Homo sapiens (Human), UniProt P42345); conditions: 10000 nM, read-out: Percent Control
FLT3-autoinhibited = FLT3-autoinhibited (Homo sapiens (Human), UniProt P36888); conditions: 10000 nM, read-out: Percent Control
IRAK4 = IRAK4 (Homo sapiens (Human), UniProt Q9NWZ3); conditions: IRAK4, 10000 nM; read-out: Percent Control
MET = MET (Homo sapiens (Human), UniProt P08581); conditions: 10000 nM, read-out: Percent Control
PCTK3 = PCTK3 (Homo sapiens (Human), UniProt Q07002); conditions: PCTK3, 10000 nM; read-out: Percent Control
PCTK3, sequence (Q07002 whole entry): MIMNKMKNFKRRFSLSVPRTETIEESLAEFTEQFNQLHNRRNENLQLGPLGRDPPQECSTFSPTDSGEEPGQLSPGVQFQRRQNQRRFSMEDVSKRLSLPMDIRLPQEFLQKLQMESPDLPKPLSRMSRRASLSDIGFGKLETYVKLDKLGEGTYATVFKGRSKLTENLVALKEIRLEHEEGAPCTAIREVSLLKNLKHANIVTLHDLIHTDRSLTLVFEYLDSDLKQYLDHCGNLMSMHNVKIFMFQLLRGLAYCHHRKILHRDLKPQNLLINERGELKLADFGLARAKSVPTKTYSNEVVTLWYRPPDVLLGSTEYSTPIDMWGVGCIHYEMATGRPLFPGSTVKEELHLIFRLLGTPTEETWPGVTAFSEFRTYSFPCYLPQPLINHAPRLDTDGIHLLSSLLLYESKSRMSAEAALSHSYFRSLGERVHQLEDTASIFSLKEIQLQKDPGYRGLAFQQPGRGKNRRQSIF

NIK, sequence (Q99558 whole entry): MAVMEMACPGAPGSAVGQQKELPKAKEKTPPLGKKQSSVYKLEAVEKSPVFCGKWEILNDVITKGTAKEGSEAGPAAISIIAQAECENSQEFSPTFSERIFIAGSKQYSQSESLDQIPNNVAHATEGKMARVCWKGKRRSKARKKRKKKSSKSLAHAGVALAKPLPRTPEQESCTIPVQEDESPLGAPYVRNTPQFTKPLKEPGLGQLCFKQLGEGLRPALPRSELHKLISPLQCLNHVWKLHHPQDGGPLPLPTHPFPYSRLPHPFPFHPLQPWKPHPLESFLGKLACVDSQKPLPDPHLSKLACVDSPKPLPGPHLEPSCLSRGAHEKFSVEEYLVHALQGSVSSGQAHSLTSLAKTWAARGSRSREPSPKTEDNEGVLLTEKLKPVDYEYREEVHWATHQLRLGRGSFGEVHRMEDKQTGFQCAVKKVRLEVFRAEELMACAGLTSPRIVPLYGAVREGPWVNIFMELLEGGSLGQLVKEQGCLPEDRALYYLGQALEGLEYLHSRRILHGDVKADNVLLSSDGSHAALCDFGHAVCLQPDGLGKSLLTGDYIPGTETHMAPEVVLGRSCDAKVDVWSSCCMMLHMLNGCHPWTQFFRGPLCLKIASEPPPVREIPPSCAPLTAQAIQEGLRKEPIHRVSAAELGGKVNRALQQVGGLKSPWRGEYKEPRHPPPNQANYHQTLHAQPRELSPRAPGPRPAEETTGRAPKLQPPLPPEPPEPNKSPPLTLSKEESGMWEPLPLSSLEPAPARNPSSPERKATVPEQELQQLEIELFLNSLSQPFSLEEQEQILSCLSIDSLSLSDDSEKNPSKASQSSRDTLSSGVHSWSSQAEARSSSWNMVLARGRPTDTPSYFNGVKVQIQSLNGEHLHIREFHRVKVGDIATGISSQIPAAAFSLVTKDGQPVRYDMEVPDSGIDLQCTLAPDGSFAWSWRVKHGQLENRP
JAK1(JH1domain-catalytic), sequence (P23458 875-1153): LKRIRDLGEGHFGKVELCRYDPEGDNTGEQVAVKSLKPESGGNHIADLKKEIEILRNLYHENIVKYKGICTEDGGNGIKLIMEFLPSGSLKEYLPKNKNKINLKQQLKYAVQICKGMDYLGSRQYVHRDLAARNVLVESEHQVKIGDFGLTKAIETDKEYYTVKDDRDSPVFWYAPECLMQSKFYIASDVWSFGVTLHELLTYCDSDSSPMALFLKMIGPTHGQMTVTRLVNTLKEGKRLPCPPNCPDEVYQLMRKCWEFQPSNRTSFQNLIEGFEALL

SMILES	remaining binding at 10 µM (MYO3B) [%]	remaining binding at 10 µM (NIK) [%]	remaining binding at 10 µM [1] [%]	remaining binding at 10 µM (AURKB) [%]	remaining binding at 10 µM (TTK) [%]	remaining binding at 10 µM (ROCK1) [%]	remaining binding at 10 µM (SRMS) [%]	remaining binding at 10 µM (DMPK2) [%]	remaining binding at 10 µM (CSF1R-autoinhibited) [%]	remaining binding at 10 µM (NEK3) [%]	remaining binding at 10 µM (FES) [%]	remaining binding at 10 µM (CSNK1G2) [%]	remaining binding at 10 µM (CDK9) [%]	remaining binding at 10 µM (PIK3CB) [%]	remaining binding at 10 µM (LYN) [%]	remaining binding at 10 µM (KIT-autoinhibited) [%]	remaining binding at 10 µM (RIOK1) [%]	remaining binding at 10 µM (SRPK2) [%]	remaining binding at 10 µM (FLT3(D835V)) [%]	remaining binding at 10 µM (LIMK1) [%]	other results
COc1cc(N2CCC(N3CCN(C)CC3)CC2)ccc1Nc1ncc2c(n1)N(C)c1sc(C)nc1C(=O)N2 [Compound 3, 6-((2-methoxy-4-(4-(4-methylpiperazin-1-yl)piperidin-1-yl)phenyl)amino)-2,4-dimethyl-4,9-dihydro-10H-pyrimido[5,4-b]thiazolo[5,4-e][1,4]diazepin-10-one]	74	85	85	100	51	100	78	91	90	88	81	81	74	97	69	100	62	87	57	96	remaining binding at 10 µM (ABL1-nonphosphorylated): 25%; remaining binding at 10 µM (CDK7): 94%; remaining binding at 10 µM (PIP5K1C): 99%; remaining binding at 10 µM (PIK3CD): 98%; remaining binding at 10 µM [2]: 17%; remaining binding at 10 µM (VRK2): 91%; remaining binding at 10 µM (CDK5): 71%; remaining binding at 10 µM (FLT3(N841I)): 98%; remaining binding at 10 µM (MAP3K2): 100%; remaining binding at 10 µM (PDGFRA): 100%; remaining binding at 10 µM (PDPK1): 76%; remaining binding at 10 µM (MTOR): 85%; remaining binding at 10 µM (FLT3-autoinhibited): 100%; remaining binding at 10 µM (IRAK4): 100%; remaining binding at 10 µM (MET): 92%; remaining binding at 10 µM (PCTK3): 90%
COc1cc(N2CCC(N3CCN(C)CC3)CC2)ccc1Nc1ncc2c(n1)N(C)c1sc(C)nc1C(=O)N2C [Compound 5, 6-((2-methoxy-4-(4-(4-methylpiperazin-1-yl)piperidin-1-yl)phenyl)amino)-2,4,9-trimethyl-4,9-dihydro-10H-pyrimido[5,4-b]thiazolo[5,4-e][1,4]diazepin-10-one]	100	93	100	99	6.9	100	97	93	100	100	97	80	98	87	100	100	100	89	97	95	remaining binding at 10 µM (ABL1-nonphosphorylated): 77%; remaining binding at 10 µM (CDK7): 100%; remaining binding at 10 µM (PIP5K1C): 95%; remaining binding at 10 µM (PIK3CD): 92%; remaining binding at 10 µM [2]: 100%; remaining binding at 10 µM (VRK2): 97%; remaining binding at 10 µM (CDK5): 98%; remaining binding at 10 µM (FLT3(N841I)): 83%; remaining binding at 10 µM (MAP3K2): 100%; remaining binding at 10 µM (PDGFRA): 88%; remaining binding at 10 µM (PDPK1): 96%; remaining binding at 10 µM (MTOR): 31%; remaining binding at 10 µM (FLT3-autoinhibited): 99%; remaining binding at 10 µM (IRAK4): 88%; remaining binding at 10 µM (MET): 97%; remaining binding at 10 µM (PCTK3): 98%

From patent US12365696B2, “Small-molecule focal adhesion kinase (FAK) inhibitors” (DANA-FARBER CANCER INSTITUTE, INC., priority 2019, dated 2025)
